Where a name gives a salt, the structure may show the parent alone.
These compounds were tested against T1, human 5-HT4(a) (Homo sapiens, UniProt Q13639) (assay: Evaluation of agonistic activity in CHO-K1 cells expressing human 5-HT4(a) (GeneBIAzer HTR4-CRE-bla CHO-K1 cells, beta-lactamase fluorescence ratio, EC50 from 8 concentrations)).
T1 construct: host or cells: GeneBIAzer HTR4-CRE-bla CHO-K1 cells
Assay type: cell-based
Experimental: Evaluation of Agonistic Activity in CHO-K1 Cells Expressing Human 5-HT4(a)
As CHO-K1 cells stably expressing human 5-HT4(a), we used the GeneBIAzer HTR4-CRE-bla CHO-K1 cells (Invitrogen Corp.). The cells were cultured, under the condition of 37° C. and 5% CO2, in a DMEM supplemented with 10% fetal bovine serum (FBS), 25 mM HEPES (pH7.4), 600 μg/ml hygromycin B, 0.1 mM non-essential amino acids, 100 unit/ml penicillin and 100 μg/ml streptomycin. Subcultures were performed three times per one week, each being at less than 80% confluence. At the previous day before treating test compounds, the cells were collected using 0.5% trypsin/EDTA and then diluted with a DMEM supplemented with 1% FBS, 25 mM HEPES, and 0.1 mM non-essential amino acids into 3.125×10^5 cells/ml. 32 μl of the diluted cells were added into 384-well plate (10^4 cells per well) and then incubated overnight. After the overnight culture, 8 μl of the medium having 1% of DMSO was added into the cell-free control well and the non-stimulating control well, respectively. 8 μl of the respective test compound dilutions (which had been prepared by diluting by 100-times with the medium as mentioned in the above) having 1% of DMSO were added to the respective remaining wells. After being cultured in the incubator for 5 hours, the wells of the 384-plate were treated with the substrate solution (8 μl per well) prepared according to the vendor's instruction (i.e., Invitrogen's instruction), and then incubated in the dark room for additional two hours. Agonistic activities on 5-HT4 receptor were evaluated, on the basis of fluorescence values of the cleavage-products by beta-lactamase. After exciting to 410 nm of wavelength using a fluorescence detector (Genios Pro), we measured the fluorescence values at two emission wavelengths (first wavelength: 465 nm, second wavelength: 535 nm). Data were analyzed on the basis of the ratio of fluorescence intensities of each well at the respective wavelengths. Each EC50 value was calculated by non-linear regression analysis using the “GraphPad Prism” program, based on the activities according to 8-different concentrations of the test compounds.

T1 sequence (Q13639 1-387 isoform Q13639-2): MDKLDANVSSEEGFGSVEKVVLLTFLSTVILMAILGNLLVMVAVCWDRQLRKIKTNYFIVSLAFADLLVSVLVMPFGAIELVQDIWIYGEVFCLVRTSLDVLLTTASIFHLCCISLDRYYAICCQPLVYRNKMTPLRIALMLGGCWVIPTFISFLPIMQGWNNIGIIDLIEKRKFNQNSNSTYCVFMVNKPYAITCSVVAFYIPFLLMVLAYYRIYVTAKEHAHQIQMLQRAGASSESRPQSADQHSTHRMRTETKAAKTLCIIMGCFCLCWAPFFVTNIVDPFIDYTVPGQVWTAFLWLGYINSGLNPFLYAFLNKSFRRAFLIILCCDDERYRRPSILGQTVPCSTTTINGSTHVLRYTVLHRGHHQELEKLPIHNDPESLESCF

| EC50 [nM] | Compound |
| --- | --- |
| 0.046 | CCCc1cc(N2CCC[C@H](NCc3ccc[nH]3)C2)nc(Nc2ccc(C)c(C#N)c2)n1 [Example 159, (S)-5-(4-{3-[(1H-pyrrol-2-yl)methylamino]piperidin-1-yl}-6-propylpyrimidin-2-ylamino)-2-methylbenzonitrile] |
| 0.125 | CCCc1cc(N2CCC[C@H](NCc3cccs3)C2)nc(Nc2ccc(C)c(C#N)c2)n1 [Example 160, (S)-2-methyl-5-(4-propyl-6-{3-[(thiophen-2-ylmethyl)amino]piperidin-1-yl}pyrimidin-2-ylamino)benzonitrile] |
| 0.148 | CCCc1cc(N2CCC[C@H](NCc3cc(C)c(C)o3)C2)nc(Nc2ccc(C)c(C#N)c2)n1 [Example 161, (S)-5-(4-{3-[(4,5-dimethylfuran-2-ylmethyl)amino]piperidin-1-yl}-6-propylpyrimidin-2-ylamino)-2-methylbenzonitrile] |
| 0.043 | CCCc1cc(N2CCC[C@H](NCCCSC)C2)nc(Nc2ccc(C)c(C#N)c2)n1 [Example 162, (S)-2-methyl-5-{4-[3-(3-methylthiopropylamino)piperidin-1-yl]-6-propylpyrimidin-2-ylamino}benzonitrile] |
| 0.088 | CCCc1cc(N2CCC[C@H](NCC3CC3)C2)nc(Nc2ccc(C)c(C#N)c2)n1 [Example 163, (S)-5-{4-[3-(cyclopropylmethylamino)piperidin-1-yl]-6-propylpyrimidin-2-ylamino}-2-methylbenzonitrile] |
| 0.075 | CCCc1cc(N2CCC[C@H](NCc3ccc(O)cc3)C2)nc(Nc2ccc(C)c(C#N)c2)n1 [Example 164, (S)-5-{4-[3-(4-hydroxybenzylamino)piperidin-1-yl]-6-propylpyrimidin-2-ylamino}-2-methylbenzonitrile] |
| 0.188 | CCCc1cc(N2CCC[C@H](N(CC)CC)C2)nc(Nc2ccc(C)c(C#N)c2)n1 [Example 165, (S)-5-[4-(3-diethylaminopiperidin-1-yl)-6-propylpyrimidin-2-ylamino]-2-methylbenzonitrile] |
| 0.039 | CCCc1cc(N2CCCCC2CCO)nc(Nc2ccc(C)c([N+](=O)[O-])c2)n1 (stereo not shown) [Example 174, 2-{1-[2-(4-methyl-3-nitrophenylamino)-6-propylpyrimidin-4-yl]piperidin-2-yl}ethanol] |
| 0.035 | CCCc1cc(N2CCCCC2CCO)nc(Nc2ccc(N)c(C(F)(F)F)c2)n1 (stereo not shown) [Example 175, 2-{1-[2-(4-amino-3-trifluoromethylphenylamino)-6-propylpyrimidin-4-yl]piperidin-2-yl}ethanol] |
| 0.018 | CCCc1cc(N2CCCCC2CCO)nc(Nc2ccc(N)c([N+](=O)[O-])c2)n1 (stereo not shown) [Example 176, 2-{1-[2-(4-amino-3-nitrophenylamino)-6-propylpyrimidin-4-yl]piperidin-2-yl}ethanol] |
| 0.049 | CCCc1cc(N2CCCCC2CCO)nc(Nc2ccc(C)c(C#N)c2)n1 (stereo not shown) [Example 177, 5-{4-[2-(2-hydroxyethyl)piperidin-1-yl]-6-propylpyrimidin-2-ylamino}-2-methylbenzonitrile] |
| 0.082 | CCCc1cc(N2CCCCC2CCO)nc(Nc2ccc(F)c(C#N)c2)n1 (stereo not shown) [Example 178, 2-fluoro-5-{4-[2-(2-hydroxyethyl)piperidin-1-yl]-6-propylpyrimidin-2-ylamino}benzonitrile] |
| 0.027 | CCCc1cc(N2CCCCC2CCO)nc(Nc2ccc(N)c(C#N)c2)n1 (stereo not shown) [Example 179, 2-amino-5-{4-[2-(2-hydroxyethyl)piperidin-1-yl]-6-propylpyrimidin-2-ylamino}benzonitrile] |
| 0.153 | CCCc1cc(N2CCCCC2CCO)nc(Nc2ccc(C)c(N)c2)n1 (stereo not shown) [Example 180, 2-{1-[2-(3-amino-4-methylphenylamino)-6-propylpyrimidin-4-yl]piperidin-2-yl}ethanol] |
| 0.025 | CCCc1cc(N2CCCCC2CCO)nc(Nc2ccc(F)c(N)c2)n1 (stereo not shown) [Example 181, 2-{1-[2-(3-amino-4-fluorophenylamino)-6-propylpyrimidin-4-yl]piperidin-2-yl}ethanol] |
| 0.022 | CCCc1cc(N2CCCCC2CCO)nc(Nc2ccc(Cl)c(N)c2)n1 (stereo not shown) [Example 182, 2-{1-[2-(3-amino-4-chlorophenylamino)-6-propylpyrimidin-4-yl]piperidin-2-yl}ethanol] |
| 0.24 | CCCc1cc(N2CCCC3CCCCC32)nc(Nc2cccc(C#N)c2)n1 (stereo not shown) [Example 187, 3-[4-(octahydroquinolin-1(2H)-yl)-6-propylpyrimidin-2-ylamino]benzonitrile] |
| 0.43 | CCCc1cc(N2CCCC3CCCCC32)nc(Nc2cccc([N+](=O)[O-])c2)n1 (stereo not shown) [Example 188, N-(3-nitrophenyl)-4-(octahydroquinolin-1(2H)-yl)-6-propylpyrimidin-2-amine] |
| 0.32 | CCCc1cc(N2CCCC3CCCCC32)nc(Nc2ccc(F)c([N+](=O)[O-])c2)n1 (stereo not shown) [Example 189, N-(4-fluoro-3-nitrophenyl)-4-(octahydroquinolin-1(2H)-yl)-6-propylpyrimidin-2-amine] |
| 0.46 | CCCc1cc(N2CCCC3CCCCC32)nc(Nc2ccc(Cl)c([N+](=O)[O-])c2)n1 (stereo not shown) [Example 190, N-(4-chloro-3-nitrophenyl)-4-(octahydroquinolin-1(2H)-yl)-6-propylpyrimidin-2-amine] |

Further lines, the compound ahead of its results:

| Compound | EC50 [nM] |
| --- | --- |
| CCCc1cc(N2CCCCC2CCO)nc(Nc2cccc(OC)c2)n1 (stereo not shown) [Example 138, 2-{1-[2-(3-methoxyphenylamino)-6-propylpyrimidin-4-yl]piperidin-2-yl}ethanol] | 0.46 |
| CCCc1cc(N2CCCCC2CCO)nc(Nc2ccc(C)c(Cl)c2)n1 (stereo not shown) [Example 140, 2-{1-[2-(3-chloro-4-methylphenylamino}-6-propylpyrimidin-4-yl]piperidin-2-yl}ethanol] | 0.28 |
| CCCc1cc(N2CCCCC2CCO)nc(Nc2cccc([N+](=O)[O-])c2)n1 (stereo not shown) [Example 141, 2-{1-[2-(3-nitrophenylamino)-6-propylpyrimidin-4-yl]piperidin-2-yl}ethanol] | 0.15 |
| CCCc1cc(N2CCCCC2CCO)nc(Nc2ccc(F)c([N+](=O)[O-])c2)n1 (stereo not shown) [Example 142, 2-{1-[2-(4-fluoro-3-nitrophenylamino)-6-propylpyrimidin-4-yl]piperidin-2-yl}ethanol] | 0.3 |
| CCCc1cc(N2CCCCC2CCO)nc(Nc2ccc3c(C)cc(=O)oc3c2)n1 (stereo not shown) [Example 146, 7-{4-[2-(2-hydroxyethyl)piperidin-1-yl]-6-propylpyrimidin-2-ylamino}-4-methyl-2H-chromen-2-one] | 0.27 |
| CCCc1cc(N2CCCCC2CCO)nc(Nc2cccc(C(F)(F)F)c2)n1 (stereo not shown) [Example 147, 2-{1-[6-propyl-2-(3-trifluoromethylphenylamino)pyrimidin-4-yl]piperidin-2-yl}ethanol] | 0.31 |
| CCCc1cc(N2CCC[C@H](N)C2)nc(Nc2ccc(C)c(C#N)c2)n1 [Example 150, (S)-5-[4-(3-aminopiperidin-1-yl)-6-propylpyrimidin-2-ylamino]-2-methylbenzonitrile dihydrochloride] | 0.07 |
| CCCc1cc(N2CCC[C@H](N)C2)nc(Nc2cccc([N+](=O)[O-])c2)n1 [Example 151, (S)-4-(3-aminopiperidin-1-yl)-N-(3-nitrophenyl)-6-propylpyrimidin-2-amine dihydrochloride] | 0.361 |
| CCCc1cc(N2CCC[C@@H](N)C2)nc(Nc2ccc(C)c(C#N)c2)n1 [Example 153, (R)-5-[4-(3-aminopiperidin-1-yl)-6-propylpyrimidin-2-ylamino]-2-methylbenzonitrile] | 0.02 |
| CCCCN[C@H]1CCCN(c2cc(CCC)nc(Nc3ccc(C)c(C#N)c3)n2)C1 [Example 154, (S)-5-{4-[3-(butylamino)piperidin-1-yl]-6-propylpyrimidin-2-ylamino}-2-methylbenzonitrile] | 0.041 |
| CCCCCN[C@H]1CCCN(c2cc(CCC)nc(Nc3ccc(C)c(C#N)c3)n2)C1 [Example 155, (S)-5-{4-[3-(pentylamino)piperidin-1-yl]-6-propylpyrimidin-2-ylamino}-2-methylbenzonitrile] | 0.093 |
| CCCc1cc(N2CCC[C@H](NCC(C)C)C2)nc(Nc2ccc(C)c(C#N)c2)n1 [Example 156, (S)-5-{4-[3-(isobutylamino)piperidin-1-yl]-6-propylpyrimidin-2-ylamino}-2-methylbenzonitrile] | 0.066 |
| CCCc1cc(N2CCC[C@H](NCCC(C)C)C2)nc(Nc2ccc(C)c(C#N)c2)n1 [Example 157, (S)-5-{4-[3-(isopentylamino)piperidin-1-yl]-6-propylpyrimidin-2-ylamino}-2-methylbenzonitrile] | 0.088 |
| CCCc1cc(N2CCC[C@H](NCC(C)(C)C)C2)nc(Nc2ccc(C)c(C#N)c2)n1 [Example 158, (S)-2-methyl-5-{4-[3-(neopentylamino)piperidin-1-yl]-6-propylpyrimidin-2-ylamino}benzonitrile] | 0.054 |
